Experimental data from ChEMBL document CHEMBL5653615 (J Biol Chem, 2013).
Calls of active or inactive are those of the source. No cut-off for these calls is given here.

Experiments:
[1] = molecular target: RAC-beta serine/threonine-protein kinase (Homo sapiens) (UniProt P31751); test: Inhibition of human AKT2 at 18.6 nM by HotSpot assay relative to control
Homo sapiens = species: Homo sapiens; test: Inhibition of human TAO1 at 18.6 nM by HotSpot assay relative to control
[2] = molecular target: Calcium/calmodulin-dependent protein kinase type 1G (Homo sapiens) (UniProt Q96NX5); test: Inhibition of human CAMK1g at 18.6 nM by HotSpot assay relative to control
[3] = molecular target: T1, Tyrosine-protein kinase Mer (Homo sapiens) (UniProt Q12866); test: Inhibition of human c-MER at 18.6 nM by HotSpot assay relative to control
T1 sequence (whole entry): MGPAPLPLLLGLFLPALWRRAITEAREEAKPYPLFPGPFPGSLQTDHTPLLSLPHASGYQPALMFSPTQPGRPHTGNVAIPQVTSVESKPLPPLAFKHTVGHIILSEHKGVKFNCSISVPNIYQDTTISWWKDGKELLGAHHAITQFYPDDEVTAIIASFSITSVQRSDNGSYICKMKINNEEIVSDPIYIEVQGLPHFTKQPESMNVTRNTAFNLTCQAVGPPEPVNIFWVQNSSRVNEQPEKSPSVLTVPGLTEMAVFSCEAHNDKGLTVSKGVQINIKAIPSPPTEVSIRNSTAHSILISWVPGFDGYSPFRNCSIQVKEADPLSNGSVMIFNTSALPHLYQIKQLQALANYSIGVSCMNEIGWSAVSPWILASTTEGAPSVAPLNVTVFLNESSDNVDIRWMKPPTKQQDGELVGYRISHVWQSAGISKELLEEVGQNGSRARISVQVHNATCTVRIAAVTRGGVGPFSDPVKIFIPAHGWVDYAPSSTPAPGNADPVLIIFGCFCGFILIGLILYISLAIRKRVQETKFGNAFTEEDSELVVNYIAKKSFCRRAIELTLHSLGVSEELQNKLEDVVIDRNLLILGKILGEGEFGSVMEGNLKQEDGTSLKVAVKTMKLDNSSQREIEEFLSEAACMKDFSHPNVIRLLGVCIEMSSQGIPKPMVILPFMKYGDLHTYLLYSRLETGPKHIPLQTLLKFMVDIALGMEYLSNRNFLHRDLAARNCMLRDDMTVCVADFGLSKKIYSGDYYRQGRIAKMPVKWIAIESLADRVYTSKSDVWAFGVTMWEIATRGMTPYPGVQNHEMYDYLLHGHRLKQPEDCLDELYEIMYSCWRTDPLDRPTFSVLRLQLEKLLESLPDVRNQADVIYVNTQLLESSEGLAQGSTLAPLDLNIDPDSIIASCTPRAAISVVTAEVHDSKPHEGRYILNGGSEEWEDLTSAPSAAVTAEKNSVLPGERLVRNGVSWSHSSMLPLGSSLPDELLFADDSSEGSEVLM

[4] = molecular target: CDK1/Cyclin A (Homo sapiens) (UniProt P06493+P20248); test: Inhibition of human CDK1/cyclin A at 18.6 nM by HotSpot assay relative to control; assay type: protein-complex assay
[5] = molecular target: Insulin receptor (Homo sapiens) (UniProt P06213); test: Inhibition of wild-type human Insulin receptor transfected in CHO-K1 cell lysate assessed as decrease in tyrosine phosphorylation at 10 uM for 30 mins on ice followed by insulin stimulation for 10 mins by Western blot analysis; assay type: subcellular; settings: time 40.0 min
[6] = molecular target: Serine/threonine-protein kinase B-raf (Homo sapiens) (UniProt P15056); test: Inhibition of human BRAF at 1.82 nM by HotSpot assay relative to control
[7] = molecular target: T2, Protein kinase C iota type (Homo sapiens) (UniProt P41743); test: Inhibition of human PKCiota at 1.82 nM by HotSpot assay relative to control
T2 sequence (whole entry): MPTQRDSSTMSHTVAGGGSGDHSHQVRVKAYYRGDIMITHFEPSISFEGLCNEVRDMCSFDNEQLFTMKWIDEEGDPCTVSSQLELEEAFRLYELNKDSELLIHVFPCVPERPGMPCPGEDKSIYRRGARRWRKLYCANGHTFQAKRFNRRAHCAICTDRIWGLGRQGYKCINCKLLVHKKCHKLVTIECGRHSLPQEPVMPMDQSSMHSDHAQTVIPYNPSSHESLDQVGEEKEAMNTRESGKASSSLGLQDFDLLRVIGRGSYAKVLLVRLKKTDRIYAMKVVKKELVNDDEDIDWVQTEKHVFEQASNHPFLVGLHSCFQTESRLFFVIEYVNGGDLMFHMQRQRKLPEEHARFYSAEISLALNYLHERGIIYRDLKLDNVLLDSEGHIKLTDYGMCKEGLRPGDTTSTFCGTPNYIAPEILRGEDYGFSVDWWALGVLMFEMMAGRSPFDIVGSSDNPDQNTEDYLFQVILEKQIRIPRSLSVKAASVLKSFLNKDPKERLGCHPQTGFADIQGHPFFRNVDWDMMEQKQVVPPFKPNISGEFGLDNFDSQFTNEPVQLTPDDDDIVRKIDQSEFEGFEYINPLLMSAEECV

[8] = molecular target: T3, Dual specificity tyrosine-phosphorylation-regulated kinase 4 (Homo sapiens) (UniProt Q9NR20); test: Inhibition of human DYRK4 at 1.82 nM by HotSpot assay relative to control
T3 sequence (whole entry): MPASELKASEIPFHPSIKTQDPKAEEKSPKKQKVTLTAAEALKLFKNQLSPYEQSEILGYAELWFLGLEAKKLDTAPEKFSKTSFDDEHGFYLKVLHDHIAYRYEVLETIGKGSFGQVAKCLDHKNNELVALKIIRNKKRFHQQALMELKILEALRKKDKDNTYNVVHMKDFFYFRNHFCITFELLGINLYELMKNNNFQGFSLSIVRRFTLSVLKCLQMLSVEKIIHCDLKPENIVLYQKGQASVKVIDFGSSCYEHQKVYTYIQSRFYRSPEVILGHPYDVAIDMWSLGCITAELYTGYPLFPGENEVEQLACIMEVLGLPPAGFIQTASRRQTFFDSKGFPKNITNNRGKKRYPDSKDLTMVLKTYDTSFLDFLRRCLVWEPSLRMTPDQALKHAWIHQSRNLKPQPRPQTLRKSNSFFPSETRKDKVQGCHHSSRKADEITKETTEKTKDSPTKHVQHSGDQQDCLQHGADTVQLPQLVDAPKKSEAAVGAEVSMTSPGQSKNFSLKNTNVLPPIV

[9] = molecular target: Mitogen-activated protein kinase kinase kinase 7 (Homo sapiens) (UniProt O43318); settings: dose 1.82 nM
Description: Inhibition of human TAK1 at 1.82 nM by HotSpot assay relative to control

[10] = molecular target: Tyrosine-protein kinase JAK1 (Homo sapiens) (UniProt P23458); test: Inhibition of human JAK1 at 1.82 nM by HotSpot assay relative to control
Chain of Tyrosine-protein kinase JAK1 (Homo sapiens) (P23458 whole entry): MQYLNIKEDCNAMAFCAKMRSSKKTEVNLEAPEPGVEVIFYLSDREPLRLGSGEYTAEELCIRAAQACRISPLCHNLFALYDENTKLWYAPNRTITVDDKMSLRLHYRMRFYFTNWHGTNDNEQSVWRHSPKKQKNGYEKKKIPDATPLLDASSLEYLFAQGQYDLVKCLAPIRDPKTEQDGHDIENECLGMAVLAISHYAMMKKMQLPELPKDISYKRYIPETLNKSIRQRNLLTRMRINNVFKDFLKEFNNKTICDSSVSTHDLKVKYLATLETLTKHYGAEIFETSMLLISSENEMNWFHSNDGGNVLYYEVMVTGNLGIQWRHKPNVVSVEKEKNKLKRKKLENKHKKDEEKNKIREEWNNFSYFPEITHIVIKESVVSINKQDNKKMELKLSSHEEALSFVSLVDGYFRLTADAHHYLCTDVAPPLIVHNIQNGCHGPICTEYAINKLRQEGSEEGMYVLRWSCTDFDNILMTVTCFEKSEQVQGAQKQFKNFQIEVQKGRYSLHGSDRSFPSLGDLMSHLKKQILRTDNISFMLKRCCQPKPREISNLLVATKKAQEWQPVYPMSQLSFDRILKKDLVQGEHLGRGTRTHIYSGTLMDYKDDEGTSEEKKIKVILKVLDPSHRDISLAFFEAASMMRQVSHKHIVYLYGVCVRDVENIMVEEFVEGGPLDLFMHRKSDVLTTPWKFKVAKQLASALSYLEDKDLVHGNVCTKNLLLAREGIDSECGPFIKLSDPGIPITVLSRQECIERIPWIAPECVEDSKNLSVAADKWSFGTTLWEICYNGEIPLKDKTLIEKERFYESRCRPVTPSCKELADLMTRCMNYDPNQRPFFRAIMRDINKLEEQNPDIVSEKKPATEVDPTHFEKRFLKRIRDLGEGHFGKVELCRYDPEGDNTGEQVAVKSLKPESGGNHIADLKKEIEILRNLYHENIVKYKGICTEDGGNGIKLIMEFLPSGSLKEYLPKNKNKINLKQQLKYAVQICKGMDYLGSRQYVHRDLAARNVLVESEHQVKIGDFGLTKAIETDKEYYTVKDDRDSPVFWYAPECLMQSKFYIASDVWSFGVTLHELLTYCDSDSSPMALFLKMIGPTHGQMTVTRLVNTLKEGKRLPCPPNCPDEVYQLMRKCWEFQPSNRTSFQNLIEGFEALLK

Chain of Insulin receptor (Homo sapiens) (P06213 28-758 limits assumed): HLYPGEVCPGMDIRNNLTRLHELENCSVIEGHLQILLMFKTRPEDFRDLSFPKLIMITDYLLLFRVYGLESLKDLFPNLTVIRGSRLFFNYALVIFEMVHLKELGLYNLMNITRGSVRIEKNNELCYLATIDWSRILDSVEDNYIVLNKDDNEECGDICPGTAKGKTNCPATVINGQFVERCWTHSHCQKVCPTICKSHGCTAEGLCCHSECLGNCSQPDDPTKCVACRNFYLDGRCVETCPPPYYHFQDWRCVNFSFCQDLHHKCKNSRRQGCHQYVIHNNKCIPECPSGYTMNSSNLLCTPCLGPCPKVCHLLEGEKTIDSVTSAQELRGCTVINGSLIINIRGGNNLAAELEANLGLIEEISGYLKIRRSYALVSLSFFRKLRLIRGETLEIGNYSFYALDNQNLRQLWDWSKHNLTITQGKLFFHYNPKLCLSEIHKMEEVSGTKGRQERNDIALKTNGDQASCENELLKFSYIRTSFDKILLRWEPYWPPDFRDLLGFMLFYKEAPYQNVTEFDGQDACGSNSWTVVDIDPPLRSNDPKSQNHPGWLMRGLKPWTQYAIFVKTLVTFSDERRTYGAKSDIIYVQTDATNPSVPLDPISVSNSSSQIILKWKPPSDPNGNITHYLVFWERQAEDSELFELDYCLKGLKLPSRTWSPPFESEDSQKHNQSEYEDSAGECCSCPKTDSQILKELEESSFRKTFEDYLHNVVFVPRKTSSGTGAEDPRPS
Chain of Insulin receptor (Homo sapiens) (P06213 763-1382 limits assumed): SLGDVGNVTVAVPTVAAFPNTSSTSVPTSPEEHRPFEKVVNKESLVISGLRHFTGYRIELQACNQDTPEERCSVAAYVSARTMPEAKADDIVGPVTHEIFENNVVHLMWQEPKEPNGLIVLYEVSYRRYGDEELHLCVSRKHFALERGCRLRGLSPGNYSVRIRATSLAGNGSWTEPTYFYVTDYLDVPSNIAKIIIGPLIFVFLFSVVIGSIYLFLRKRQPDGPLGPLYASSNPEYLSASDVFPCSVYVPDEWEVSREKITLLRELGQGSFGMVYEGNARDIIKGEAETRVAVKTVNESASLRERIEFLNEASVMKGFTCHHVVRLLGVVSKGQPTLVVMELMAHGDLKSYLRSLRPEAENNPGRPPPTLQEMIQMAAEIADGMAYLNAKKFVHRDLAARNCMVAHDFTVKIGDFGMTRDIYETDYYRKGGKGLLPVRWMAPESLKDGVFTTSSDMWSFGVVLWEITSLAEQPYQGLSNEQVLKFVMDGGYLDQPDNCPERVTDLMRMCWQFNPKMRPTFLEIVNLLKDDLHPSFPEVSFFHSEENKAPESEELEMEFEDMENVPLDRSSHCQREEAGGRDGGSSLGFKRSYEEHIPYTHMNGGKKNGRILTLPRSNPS
Chain of Calcium/calmodulin-dependent protein kinase type 1G (Homo sapiens) (Q96NX5 whole entry): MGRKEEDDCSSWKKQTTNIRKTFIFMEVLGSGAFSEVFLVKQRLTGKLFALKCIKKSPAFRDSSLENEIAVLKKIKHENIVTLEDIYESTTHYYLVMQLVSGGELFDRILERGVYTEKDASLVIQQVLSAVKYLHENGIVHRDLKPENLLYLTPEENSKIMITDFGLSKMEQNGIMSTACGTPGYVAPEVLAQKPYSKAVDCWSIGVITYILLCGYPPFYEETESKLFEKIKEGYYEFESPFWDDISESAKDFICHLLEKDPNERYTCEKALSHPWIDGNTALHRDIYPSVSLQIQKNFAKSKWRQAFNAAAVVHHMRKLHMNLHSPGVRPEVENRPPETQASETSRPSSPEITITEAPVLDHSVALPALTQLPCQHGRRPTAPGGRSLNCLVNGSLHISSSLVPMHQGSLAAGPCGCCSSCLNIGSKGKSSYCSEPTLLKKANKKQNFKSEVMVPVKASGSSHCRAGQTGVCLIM
Chain of Serine/threonine-protein kinase B-raf (Homo sapiens) (P15056 whole entry): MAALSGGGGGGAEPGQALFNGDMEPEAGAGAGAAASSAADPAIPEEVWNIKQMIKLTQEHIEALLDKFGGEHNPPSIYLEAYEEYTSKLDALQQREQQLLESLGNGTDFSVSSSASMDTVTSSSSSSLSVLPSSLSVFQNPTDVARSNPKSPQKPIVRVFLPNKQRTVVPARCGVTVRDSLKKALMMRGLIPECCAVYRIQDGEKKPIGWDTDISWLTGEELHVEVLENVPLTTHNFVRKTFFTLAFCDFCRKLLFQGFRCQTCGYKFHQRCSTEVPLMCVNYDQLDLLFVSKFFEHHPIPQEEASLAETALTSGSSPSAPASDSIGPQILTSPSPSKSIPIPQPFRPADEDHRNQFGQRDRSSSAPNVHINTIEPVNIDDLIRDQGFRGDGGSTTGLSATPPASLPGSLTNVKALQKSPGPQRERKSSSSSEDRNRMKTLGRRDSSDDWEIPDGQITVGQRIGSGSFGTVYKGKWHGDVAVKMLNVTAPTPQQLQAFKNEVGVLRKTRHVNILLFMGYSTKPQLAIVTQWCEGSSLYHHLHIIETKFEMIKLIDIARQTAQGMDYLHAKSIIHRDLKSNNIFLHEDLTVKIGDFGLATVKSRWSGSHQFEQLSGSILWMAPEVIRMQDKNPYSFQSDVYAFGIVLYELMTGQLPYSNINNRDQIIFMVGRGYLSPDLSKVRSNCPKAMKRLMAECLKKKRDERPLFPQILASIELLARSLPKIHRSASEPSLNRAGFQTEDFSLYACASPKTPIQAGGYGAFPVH
Chain of CDK1/Cyclin A (Homo sapiens) (P06493 whole entry, looked up): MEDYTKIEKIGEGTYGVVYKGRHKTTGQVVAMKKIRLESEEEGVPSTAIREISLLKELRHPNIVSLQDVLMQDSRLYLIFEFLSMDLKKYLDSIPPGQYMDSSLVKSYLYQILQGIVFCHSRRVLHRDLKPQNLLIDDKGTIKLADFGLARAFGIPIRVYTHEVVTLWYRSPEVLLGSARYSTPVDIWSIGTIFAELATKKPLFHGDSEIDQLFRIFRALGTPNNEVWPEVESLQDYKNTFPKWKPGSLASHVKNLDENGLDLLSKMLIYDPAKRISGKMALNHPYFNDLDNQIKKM
Chain of CDK1/Cyclin A (Homo sapiens) (P20248 whole entry, looked up): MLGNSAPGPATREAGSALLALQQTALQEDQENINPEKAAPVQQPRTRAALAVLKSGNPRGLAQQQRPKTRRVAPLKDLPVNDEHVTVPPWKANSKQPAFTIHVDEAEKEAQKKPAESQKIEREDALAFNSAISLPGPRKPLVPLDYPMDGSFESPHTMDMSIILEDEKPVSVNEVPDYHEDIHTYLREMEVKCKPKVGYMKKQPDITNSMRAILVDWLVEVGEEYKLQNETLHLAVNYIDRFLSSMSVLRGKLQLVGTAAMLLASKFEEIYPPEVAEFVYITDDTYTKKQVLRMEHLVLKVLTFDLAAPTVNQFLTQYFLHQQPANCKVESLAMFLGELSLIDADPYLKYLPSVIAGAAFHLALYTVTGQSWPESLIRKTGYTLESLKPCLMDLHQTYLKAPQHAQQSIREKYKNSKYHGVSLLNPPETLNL
Chain of RAC-beta serine/threonine-protein kinase (Homo sapiens) (P31751 whole entry): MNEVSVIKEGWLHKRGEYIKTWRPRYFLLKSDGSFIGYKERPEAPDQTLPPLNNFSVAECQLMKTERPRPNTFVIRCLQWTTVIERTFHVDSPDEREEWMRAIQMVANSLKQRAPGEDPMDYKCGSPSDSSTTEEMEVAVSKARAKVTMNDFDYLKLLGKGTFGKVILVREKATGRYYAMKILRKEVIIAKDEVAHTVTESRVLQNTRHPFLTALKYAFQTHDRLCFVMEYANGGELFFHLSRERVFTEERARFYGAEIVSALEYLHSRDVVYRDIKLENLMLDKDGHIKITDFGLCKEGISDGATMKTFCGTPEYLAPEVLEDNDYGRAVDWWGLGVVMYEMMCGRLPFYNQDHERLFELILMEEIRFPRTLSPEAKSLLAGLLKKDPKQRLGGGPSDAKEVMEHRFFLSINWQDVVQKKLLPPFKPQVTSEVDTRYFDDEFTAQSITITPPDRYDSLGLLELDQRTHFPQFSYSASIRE

`C[C@]1(O)C[C@@H](c2nc(-c3ccc4ccc(-c5ccccc5)nc4c3)c3c(N)nccn32)C1` was tested, and the inhibition [1] was 0.3%, the inhibition (Homo sapiens) was 1.8% and the inhibition [2] was 6.69%. The inhibition [3] was -0.54% and the inhibition [4] was 1.16%.
For `Oc1n[nH]c2nnc(-c3c(-c4ccccc4)nn4ccccc34)cc12`, the inhibition [5] was “Active”.
`C[C@@]1(C(=O)Nc2ccc(F)nc2)CCCN1c1nc(Nc2cc(C3CC3)n[nH]2)c2cccn2n1` gave an inhibition [6] of 7.49%, an inhibition [7] of -0.86% and an inhibition [8] of -0.4%. The inhibition [9] was 3.35% and the inhibition [10] was -5.65%.
